According to patent US11702404B2, “GLP-1R modulating compounds” (priority 2019, dated 2023):
Read-outs that look alike come from different tables or passages of the source.

Tests used:
GLP-1R = GLP-1R (Homo sapiens, UniProt P43220); experiment: GLP-1R activation: cAMP increase in CHO cells stably expressing GLP-1R; type: cell-based
[1] = Microsomal stability, human liver microsomes (predicted hepatic clearance); settings: predicted from in vitro microsomal stability data
[2] = cAMP increase, CHO cells stably expressing GLP-1R, 10 point dose response, 30 minutes incubation, read-out: EC50

Chain of GLP-1R (P43220 24-463): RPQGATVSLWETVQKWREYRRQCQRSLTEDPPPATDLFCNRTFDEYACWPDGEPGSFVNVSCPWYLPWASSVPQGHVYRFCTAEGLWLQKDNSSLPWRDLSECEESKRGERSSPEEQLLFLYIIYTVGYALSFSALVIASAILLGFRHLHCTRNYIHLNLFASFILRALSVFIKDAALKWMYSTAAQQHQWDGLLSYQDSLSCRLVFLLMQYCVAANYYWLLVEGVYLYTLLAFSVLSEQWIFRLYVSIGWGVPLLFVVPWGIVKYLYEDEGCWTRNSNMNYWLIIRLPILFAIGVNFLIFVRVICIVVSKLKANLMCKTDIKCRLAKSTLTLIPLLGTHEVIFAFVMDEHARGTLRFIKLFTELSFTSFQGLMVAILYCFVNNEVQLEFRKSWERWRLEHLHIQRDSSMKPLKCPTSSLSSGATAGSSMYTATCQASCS

For COCCn1c(C2OCCc3cc(-c4cccc(OCc5ccc(C#N)cc5F)n4)ccc32)nc2ccc(C(=O)O)cc21 (single isomer, unassigned) [Example 48, 2-(6-(6-((4-cyano-2-fluorobenzyl)oxy)pyridin-2-yl)isochroman-1-yl)-1-(2-methoxyethyl)-1H-benzo[d]imidazole-6-carboxylic acid], which EC50 (GLP-1R; [2]) is on record?
Its EC50 is 575 nM.

What about the “Predicted Hepatic Clearance (Pred. Cl.)” value [1] of the same compound?
Its value is 3.67 mL/min/kg.

With N#Cc1ccc(COc2nccc(-c3cc(F)c(Cc4nc5c(F)cc(C(=O)O)cc5n4Cc4ncco4)cc3F)n2)c(F)c1 [Example 617] as the compound, how does the EC50 (GLP-1R; [2]) read?
The EC50 was 0.55 nM.

What about the “Predicted Hepatic Clearance (Pred. Cl.)” value [1] of the same compound?
The value was 3.67 mL/min/kg.

Which results are given for COCCn1c(Cc2ccc(-c3cccc(OCc4ccc(C#N)cc4F)n3)cc2F)nc2ccc(CC(=O)O)cc21 [Example 386, 2-(2-(4-(6-((4-cyano-2-fluorobenzyl)oxy)pyridin-2-yl)-2-fluorobenzyl)-1-(2-methoxyethyl)-1H-benzo[d]imidazol-6-yl)acetic acid]?
EC50 (GLP-1R; EC50 (nM)): 157 nM; Predicted Hepatic Clearance (Pred. Cl.) [1]: 2 mL/min/kg

Which EC50 (GLP-1R; [2]) does the source give for COCCn1c(Cc2cc(F)c(-c3cccc(OCc4ccc(C)cc4)n3)cc2F)nc2ccc(C(=O)O)cc21 [Example 814] here?
The EC50 was 2.14 nM.

What about the “Predicted Hepatic Clearance (Pred. Cl.)” value [1] of the same compound?
The value was 6.17 mL/min/kg.

Which EC50 (GLP-1R; [2]) does the source give for COCCn1c(Cn2cc(F)c(-c3cccc(OCc4ccc(C#N)cc4F)n3)cc2=O)nc2c(F)cc(C(=O)O)cc21 [Example 684] here?
The EC50 was 0.29 nM.

What about the “Predicted Hepatic Clearance (Pred. Cl.)” value [1] of the same compound?
Its value is 3 mL/min/kg.

What does the source list for COCCn1c(Cc2ccc(-c3cccc(OCc4ccc(Cl)cc4OC)n3)cc2F)nc2ccc(C(=O)O)cc21 [Example 247, 2-(4-(6-((4-chloro-2-methoxybenzyl)oxy)pyridin-2-yl)-2-fluorobenzyl)-1-(2-methoxyethyl)-1H-benzo[d]imidazole-6-carboxylic acid]?
EC50 (GLP-1R; [2]): 2.2 nM; Predicted Hepatic Clearance (Pred. Cl.) [1]: 6.83 mL/min/kg

What does the source list for COCCn1c(Cc2cc(F)c(-c3cccc(OCc4ccc(Cl)nc4)n3)cc2F)nc2ccc(C(=O)O)cc21 [Example 813]?
EC50 (GLP-1R; [2]): 2.98 nM; Predicted Hepatic Clearance (Pred. Cl.) [1]: 1.83 mL/min/kg

With COCCn1c(Cc2cc(F)c(-c3cccc(OCc4ccc(C(N)=O)nc4)n3)cc2F)nc2c(F)cc(C(=O)O)cc21 [Example 825] as the compound, how does the EC50 (GLP-1R; [2]) read?
The EC50 was 9.09 nM.

And the “Predicted Hepatic Clearance (Pred. Cl.)” value [1]?
The value was 1.83 mL/min/kg.

For CC(C)(C)C(=O)N1CC[C@@H]1Cn1c(Cc2ccc(-c3cccc(OCc4ccc(C#N)cc4F)n3)cc2F)nc2ccc(C(=O)O)cc21 [Example 887, 2-[[4-[6-[(4-cyano-2-fluoro-phenyl)methoxy]-2-pyridyl]-2-fluoro-phenyl]methyl]-3-[[(2R)-1-(2,2-dimethylpropanoyl)azetidin-2-yl]methyl]benzimidazole-5-carboxylic acid], which EC50 (GLP-1R; read-out: EC50) is on record?
Its EC50 is 8310 nM.

What about the “Predicted Hepatic Clearance (Pred. Cl.)” value [1] of the same compound?
The value was 8.83 mL/min/kg.

Which results are given for COCCn1c(Cc2ccc(-c3cc(C(=O)O)cc(OCc4ccc(C#N)cc4F)n3)cc2F)nc2ccc(C(=O)O)cc21 [Example 97, 2-(4-(4-carboxy-6-((4-cyano-2-fluorobenzyl)oxy)pyridin-2-yl)-2-fluorobenzyl)-1-(2-methoxyethyl)-1H-benzo[d]imidazole-6-carboxylic acid]?
EC50 (GLP-1R; [2]): 2780 nM; Predicted Hepatic Clearance (Pred. Cl.) [1]: 3.5 mL/min/kg

What does the source list for O=C(O)c1ccc2nc(Cc3c(F)cc(-c4cccc(OCc5ccc(C(F)F)cc5F)n4)c(F)c3F)n(C[C@@H]3CCO3)c2c1 [Example 758]?
EC50 (GLP-1R; [2]): 0.03 nM; Predicted Hepatic Clearance (Pred. Cl.) [1]: 4.5 mL/min/kg

Which EC50 (GLP-1R; [2]) does the source give for COC[C@H](CF)n1c(Cc2cc(F)c(-c3cccc(OCc4ccc(C#N)cc4F)n3)cc2F)nc2ccc(C(=O)O)cc21 [Example 727] here?
The EC50 was 46.3 nM.

What about the “Predicted Hepatic Clearance (Pred. Cl.)” value [1] of the same compound?
The value was 5.5 mL/min/kg.

What does the source list for COCCn1c(Cc2ccc(-c3cccc(OCc4ccc(C#N)cc4F)n3)cc2C#CC2CC(F)(F)C2)nc2ccc(C(=O)O)cc21 [Example 228, 2-(4-(6-((4-cyano-2-fluorobenzyl)oxy)pyridin-2-yl)-2-((3,3-difluorocyclobutyl)ethynyl)benzyl)-1-(2-methoxyethyl)-1H-benzo[d]imidazole-6-carboxylic acid]?
EC50 (GLP-1R; [2]): 4.87 nM; Predicted Hepatic Clearance (Pred. Cl.) [1]: 4.83 mL/min/kg

Which EC50 (GLP-1R; [2]) does the source give for N#Cc1ccc(COc2ccc(F)c(-c3ccc(Cc4nc5ccc(C(=O)O)cc5n4C[C@@H]4CCO4)cc3)n2)c(F)c1 [Example 794] here?
Its EC50 is 0.97 nM.

And the “Predicted Hepatic Clearance (Pred. Cl.)” value [1]?
The value was 6.17 mL/min/kg.

Which EC50 (GLP-1R; [2]) does the source give for COCCn1c(Cc2ccc(-c3cccc(OCc4nccn4C)n3)cc2F)nc2ccc(C(=O)O)cc21 [Example 512, 2-(2-fluoro-4-(6-((1-methyl-1H-imidazol-2-yl)methoxy)pyridin-2-yl)benzyl)-1-(2-methoxyethyl)-1H-benzo[d]imidazole-6-carboxylic acid] here?
Its EC50 is 6560 nM.

What about the “Predicted Hepatic Clearance (Pred. Cl.)” value [1] of the same compound?
The value was 7.67 mL/min/kg.

With CCn1nncc1Cn1c(Cc2ccc(-c3cccc(OCc4ccc(C#N)cc4F)n3)cc2F)nc2ccc(C(=O)O)cc21 [Example 370, 2-(4-(6-((4-cyano-2-fluorobenzyl)oxy)pyridin-2-yl)-2-fluorobenzyl)-1-((l-ethyl-1H-1,2,3-triazol-5-yl)methyl)-1H-benzo[d]imidazole-6-carboxylic acid] as the compound, how does the EC50 (GLP-1R; [2]) read?
The EC50 was 3.34 nM.

And the “Predicted Hepatic Clearance (Pred. Cl.)” value [1]?
Its value is 6.7 mL/min/kg.

With COCCn1c(Cc2c(F)cc(-c3csnc3OCc3ccc(Cl)cc3F)cc2F)nc2ccc(C(=O)O)cc21 [Example 72, 2-(4-(3-((4-chloro-2-fluorobenzyl)oxy)isothiazol-4-yl)-2,6-difluorobenzyl)-1-(2-methoxyethyl)-1H-benzo[d]imidazole-6-carboxylic acid] as the compound, how does the EC50 (GLP-1R; [2]) read?
Its EC50 is 23.8 nM.

And the “Predicted Hepatic Clearance (Pred. Cl.)” value [1]?
Its value is 12.3 mL/min/kg.

Which results are given for COCCn1c(Cc2ccc(-c3cccc(OCc4ccc(C#N)cc4OC4CC4)n3)cc2F)nc2ccc(C(=O)O)cc21 [Example 346, 2-(4-(6-((4-cyano-2-cyclopropoxybenzyl)oxy)pyridin-2-yl)-2-fluorobenzyl)-1-(2-methoxyethyl)-1H-benzo[d]imidazole-6-carboxylic acid]?
EC50 (GLP-1R; [2]): 94.6 nM; Predicted Hepatic Clearance (Pred. Cl.) [1]: 7.83 mL/min/kg

With N#Cc1cc(F)c(COc2nc(-c3cc(F)c(Cc4nc5c(F)cc(C(=O)O)cc5n4C[C@@H]4CCO4)cc3F)ccc2F)cc1F [Example 766] as the compound, how does the EC50 (GLP-1R; [2]) read?
Its EC50 is 0.13 nM.

And the “Predicted Hepatic Clearance (Pred. Cl.)” value [1]?
The value was 3 mL/min/kg.

For COCCn1c(Cc2ccc(-c3cccc(OCc4cccc(=O)n4C)n3)cc2F)nc2ccc(C(=O)O)cc21 [Example 373, 2-(2-fluoro-4-(6-((1-methyl-6-oxo-1,6-dihydropyridin-2-yl)methoxy)pyridin-2-yl)benzyl)-1-(2-methoxyethyl)-1H-benzo[d]imidazole-6-carboxylic acid], which EC50 (GLP-1R; [2]) is on record?
Its EC50 is 4770 nM.

What about the “Predicted Hepatic Clearance (Pred. Cl.)” value [1] of the same compound?
Its value is 19.5 mL/min/kg.

What does the source list for COCCn1c(Cc2ccc(-c3cccc(OCc4ccc(C#N)cc4F)n3)cc2-c2ccc(C#N)cc2)nc2ccc(C(=O)O)cc21 [Example 193, 2-((4′-cyano-5-(6-((4-cyano-2-fluorobenzyl)oxy)pyridin-2-yl)-[1,1′-biphenyl]-2-yl)methyl)-1-(2-methoxyethyl)-1H-benzo[d]imidazole-6-carboxylic acid]?
EC50 (GLP-1R; [2]): 131 nM; Predicted Hepatic Clearance (Pred. Cl.) [1]: 6.83 mL/min/kg

With O=C(O)c1ccc2nc(Cc3cc(F)c(-c4ccnc(OCc5ccc(C(F)F)cc5F)n4)cc3F)n(C[C@@H]3CCO3)c2c1 [Example 801] as the compound, how does the EC50 (GLP-1R; [2]) read?
Its EC50 is 0.12 nM.

And the “Predicted Hepatic Clearance (Pred. Cl.)” value [1]?
Its value is 3.17 mL/min/kg.

What does the source list for COCCn1c(Cc2ccc(-c3ncc(F)c(OCc4ccc(C#N)cc4F)n3)c(F)c2F)nc2ccc(C(=O)O)cc21 [Example 169, 2-(4-(4-((4-cyano-2-fluorobenzyl)oxy)-5-fluoropyrimidin-2-yl)-2,3-difluorobenzyl)-1-(2-methoxyethyl)-1H-benzo[d]imidazole-6-carboxylic acid]?
EC50 (GLP-1R; [2]): 4.31 nM; Predicted Hepatic Clearance (Pred. Cl.) [1]: 5.33 mL/min/kg

Which results are given for N#Cc1ccc(COc2cccc(-c3cc(F)c(Cc4nc5ccc(C(=O)O)cc5n4C4COCC4(F)F)cc3F)n2)c(F)c1 (stereo not drawn) [Example 612]?
EC50 (GLP-1R; [2]): 0.22 nM; Predicted Hepatic Clearance (Pred. Cl.) [1]: 3.83 mL/min/kg

Which EC50 (GLP-1R; [2]) does the source give for COCCn1c(Cc2cnc(-c3cccc(OCc4ccc(C#N)cc4F)n3)c(F)c2)nc2ccc(C(=O)O)cc21 [Example 855] here?
Its EC50 is 12.6 nM.

And the “Predicted Hepatic Clearance (Pred. Cl.)” value [1]?
The value was 5.5 mL/min/kg.

Which EC50 (GLP-1R; [2]) does the source give for COCCn1c(Cc2ccc(-c3cccc(OCc4cc(C(C)C)ccc4OC)n3)cc2F)nc2ccc(C(=O)O)cc21 [Example 145, 2-(2-fluoro-4-(6-((5-isopropyl-2-methoxybenzyl)oxy)pyridin-2-yl)benzyl)-1-(2-methoxyethyl)-1H-benzo[d]imidazole-6-carboxylic acid] here?
The EC50 was 1730 nM.

What about the “Predicted Hepatic Clearance (Pred. Cl.)” value [1] of the same compound?
The value was 8.3 mL/min/kg.

Which EC50 (GLP-1R; [2]) does the source give for N#Cc1ccc(COc2cccc(-c3ccc(Cc4nc5c(F)cc(C(=O)O)cc5n4Cc4ccon4)c(F)c3)n2)c(F)c1 [Example 585, 2-(4-(6-((4-cyano-2-fluorobenzyl)oxy)pyridin-2-yl)-2-fluorobenzyl)-4-fluoro-1-(isoxazol-3-ylmethyl)-1H-benzo[d]imidazole-6-carboxylic acid] here?
The EC50 was 0.81 nM.

And the “Predicted Hepatic Clearance (Pred. Cl.)” value [1]?
Its value is 2.33 mL/min/kg.

For CC(=O)N1CC[C@@H]1Cn1c(Cc2cc(F)c(-c3cccc(OCc4ccc(C#N)cc4F)n3)cc2F)nc2ccc(C(=O)O)cc21 (single isomer, unassigned) [Example 689], which EC50 (GLP-1R; read-out: EC50) is on record?
Its EC50 is 0.56 nM.

And the “Predicted Hepatic Clearance (Pred. Cl.)” value [1]?
The value was 5.17 mL/min/kg.

Which results are given for COCCn1c(Cc2ccc(-c3cccc(OCc4cccc5c4nnn5C)n3)cc2F)nc2ccc(C(=O)O)cc21 [Example 147, 2-(2-fluoro-4-(6-((1-methyl-1H-benzo[d][1,2,3]triazol-4-yl)methoxy)pyridin-2-yl)benzyl)-1-(2-methoxyethyl)-1H-benzo[d]imidazole-6-carboxylic acid]?
EC50 (GLP-1R; [2]): 760 nM; Predicted Hepatic Clearance (Pred. Cl.) [1]: 12 mL/min/kg

With COCCn1c(Cc2cc(F)c(-c3cccc(OCc4ccc(C#N)cc4OC)n3)cc2F)nc2ccc(C(=O)O)cc21 [Example 436, 2-(4-(6-((4-cyano-2-methoxybenzyl)oxy)pyridin-2-yl)-2,5-difluorobenzyl)-1-(2-methoxyethyl)-1H-benzo[d]imidazole-6-carboxylic acid] as the compound, how does the EC50 (GLP-1R; [2]) read?
The EC50 was 0.44 nM.

What about the “Predicted Hepatic Clearance (Pred. Cl.)” value [1] of the same compound?
Its value is under 1.83 mL/min/kg.
